Earlier results as cited in patent US12121514B2, “Nonselective metabotropic glutamate receptor activators for treatment of attention deficit disorder and 22Q syndrome” (THE CHILDREN'S HOSPITAL OF PHILADELPHIA, priority 2015, dated 2024).

Tests used:
[1] = tested on: group I and group II/III mGluRs; details: in vitro studies; cited from earlier work
[2] = tested on: adenylate cyclase activity through group I, II and III mGluRs; details: cited from earlier work
pediatric ADHD subjects = details: cited from earlier work

O=C1CC[C@H](C(=O)N2CCCCC2)N1 [Fasoracetam, fasoracetam]
stimulation of mGluRs [1]: can stimulate both group I and group II/III mGluRs | adenylate cyclase activity through group I mGluRs [2]: may stimulate adenylate cyclase activity | adenylate cyclase activity through group II and III mGluRs [2]: may also inhibit adenylate cyclase activity

NC(=O)CN1CCCC1=O [piracetam]
ADHD symptoms compared to a placebo control (pediatric ADHD subjects): increase ADHD symptoms
